Data as given in the supplement of paper PMC10307832.

How the values were obtained:
Assay in all cases: relative viability (nuclei count vs DMSO), 5 days (fraction); higher = more cells survive
[1] = compound: C1COCCN1C2=CC(=O)C3=C(O2)C(=CC=C3)C4=CC=CC5=C4SC6=CC=CC=C56
Method in brief: (§1)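 Five library-drug doses spaced by √10 were pinned onto vehicle-anchored 1536-well plates of lung cancer cell lines that had been kept overnight at 37 °C. Cells went 5 days without medium change, then were fixed, permeabilised and Hoechst-stained together, imaged at 4× and counted by MetaXpress. Viability is the ratio of treated-well to vehicle-well nuclei, taken as a median over plates. Plates required control CV below 25% and at least one doubling.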

[2] = compound: CCN(CC)CCCCNc1ncc2cc(-c3cc(OC)cc(OC)c3)c(NC(=O)NC(C)(C)C)nc2n1
Method in brief: as §1

PRIMA-1MET = compound: COCC1(CO)C(=O)C2CCN1CC2 [PRIMA-1MET]
Method in brief: as §1

Zibotentan = compound: COc1nc(C)cnc1NS(=O)(=O)c1cccnc1-c1ccc(-c2nnco2)cc1 [Zibotentan]
Method in brief: as §1

[3] = compound: O=c1cc(-c2cccc3c2Sc2ccccc2S3)oc(N2CCOCC2)c1
Method in brief: as §1

| Cell Line | relative viability ([1]; 0.01 µM) | relative viability ([1]; 0.03162 µM) | relative viability ([1]; 0.1 µM) | relative viability ([1]; 0.3162 µM) | relative viability ([1]; 1 µM) | relative viability ([2]; 0.01 µM) | relative viability ([2]; 0.03162 µM) | relative viability ([2]; 0.1 µM) | relative viability ([2]; 0.3162 µM) | relative viability ([2]; 1 µM) | relative viability (PRIMA-1MET; 0.2 µM) | relative viability (PRIMA-1MET; 0.6325 µM) | relative viability (PRIMA-1MET; 2 µM) | relative viability (PRIMA-1MET; 6.325 µM) | relative viability (PRIMA-1MET; 20 µM) | relative viability (Zibotentan; 0.08 µM) | relative viability (Zibotentan; 0.253 µM) | relative viability (Zibotentan; 0.8 µM) | relative viability (Zibotentan; 2.53 µM) | relative viability ([3]; 0.08 µM) | relative viability ([3]; 0.253 µM) | relative viability ([3]; 0.8 µM) | relative viability ([3]; 2.53 µM) | relative viability ([3]; 8 µM) |
| --- | --- | --- | --- | --- | --- | --- | --- | --- | --- | --- | --- | --- | --- | --- | --- | --- | --- | --- | --- | --- | --- | --- | --- | --- |
| HCC-15 | 0.963 | 1.14 | 1.08 | 0.968 | 1.03 | 1.08 | 1.03 | 1.08 | 1.2 | 0.957 | 0.967 | 0.856 | 0.936 | 1.01 | 0.874 | 0.995 | 0.994 | 1.09 | 1.01 | 0.954 | 1.13 | 1.06 | 0.94 | 1.06 |
| NCI-H661 | 0.965 | 1.01 | 0.98 | 0.991 | 0.969 | 1.06 | 1 | 1.03 | 1.09 | 0.993 | 1.03 | 0.917 | 0.991 | 1 | 0.957 | 1.01 | 0.912 | 0.951 | 0.987 | 0.996 | 1 | 0.948 | 0.942 | 0.951 |
| NCI-H3122 | 1.01 | 0.988 | 1.01 | 0.961 | 1.01 | 1.02 | 1.04 | 1.07 | 1.1 | 0.967 | 0.85 | 0.972 | 0.948 | 1.01 | 1 | 1.02 | 1.01 | 0.978 | 0.98 | 1.01 | 1.02 | 1.03 | 1.03 | 1.08 |
| EKVX | 0.964 | 0.966 | 1.04 | 0.926 | 0.924 | 0.888 | 0.877 | 1.02 | 1.13 | 0.981 | 1.17 | 0.905 | 0.731 | 0.975 | 0.885 | 0.957 | 0.944 | 0.963 | 1.03 | 0.974 | 0.997 | 0.903 | 0.888 | 1.03 |
| SK-MES-1 | 1 | 1 | 0.999 | 0.988 | 0.934 | 1.09 | 1.07 | 1.08 | 1.08 | 1.01 | 1.1 | 1 | 0.993 | 1.09 | 0.98 | 1.01 | 0.911 | 0.955 | 1.07 | 1 | 1.16 | 0.927 | 0.933 | 0.928 |
| LK-2 | 1.03 | 1.07 | 1.12 | 0.97 | 1.07 | 1.06 | 0.944 | 0.903 | 0.709 | 0.312 | 1.06 | 0.925 | 0.602 | 0.514 | 0.197 | 1.24 | 0.923 | 0.906 | 0.953 | 1.09 | 1.16 | 1.06 | 0.9 | 1.45 |
| NCI-H1755 | 1.03 | 1.01 | 0.986 | 0.994 | 0.985 | 1.04 | 1.05 | 1.08 | 1.1 | 1.01 | 1.04 | 0.928 | 0.85 | 1.07 | 0.999 | 0.972 | 0.987 | 0.926 | 0.977 | 0.96 | 1.03 | 1.05 | 1.06 | 1.05 |
| LCLC-103H | 1.06 | 1.02 | 1.01 | 0.903 | 0.997 | 1.01 | 1.01 | 1.02 | 0.952 | 0.687 | 1.04 | 0.875 | 0.805 | 1.02 | 0.993 | 1.08 | 0.98 | 0.923 | 1.01 | 0.96 | 1.01 | 1 | 0.953 | 1.05 |
| NCI-H23 | 0.981 | 1.11 | – | 1.12 | 1.03 | 0.923 | 1 | 0.957 | 1.08 | 0.977 | 0.904 | 0.754 | 0.814 | 0.909 | 0.201 | 1.05 | 0.91 | 0.89 | 1.1 | 0.776 | 1.11 | 1.02 | 0.846 | 0.879 |
| COR-L 105 | 0.88 | 0.926 | 0.943 | 0.899 | 0.914 | 0.838 | 0.914 | 1.1 | 1.06 | 0.835 | 1 | 0.899 | 0.818 | 0.835 | 0.175 | 1.01 | 0.861 | 0.959 | 1.02 | 0.811 | 1.04 | 0.871 | 0.835 | 0.978 |
| EMC-BAC-2 | 0.94 | 1.03 | 1.07 | 1.09 | 0.655 | – | 0.967 | 1.13 | 1.13 | 0.994 | 1.31 | 0.916 | 0.738 | 1.05 | 0.971 | 1.41 | – | 1.08 | 1.02 | 0.927 | 1.12 | 0.999 | 1.03 | 1.18 |
| NCI-H727 | 0.91 | 0.858 | 0.874 | 0.888 | 0.958 | 0.985 | 0.978 | 0.94 | 1.07 | 0.882 | 1.01 | 0.865 | 0.625 | 0.615 | 0.331 | 0.847 | 0.872 | 0.966 | 1.01 | 0.908 | 1.08 | 0.758 | 0.899 | 0.924 |
| NCI-H2085 | 0.986 | 0.961 | 0.97 | 0.974 | 0.966 | 1.03 | 0.987 | 0.99 | 1.02 | 0.972 | 1.06 | 1 | 0.791 | 1.05 | 0.524 | 1.01 | 0.954 | 1.05 | 1.03 | 0.95 | 1.1 | 1.05 | 0.96 | 0.892 |
| UMC-11 | 0.986 | 0.952 | 0.982 | 1.02 | 0.989 | 1.03 | 0.915 | 1.01 | 1.01 | 0.98 | 1.05 | 0.887 | 0.848 | 0.97 | 0.944 | 1.01 | 1.01 | 0.951 | 0.978 | 0.998 | 1.18 | 1.09 | 0.916 | 1.25 |
